From the supplement of paper PMC10307832

Tests used:
Test in all cases: relative viability (nuclei count vs DMSO), 5 days (fraction); higher = more cells survive
[1] = compound: CC1=CN2C(=O)C=C(N=C2C(=C1)C(C)NC3=CC=CC=C3)N4CCOCC4 [TGX 221] + C[C@]1(O)C[C@@H](c2nc(-c3ccc4ccc(-c5ccccc5)nc4c3)c3c(N)nccn32)C1 [Linsitinib] (partner 1 µM)
How it was run: (§1)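 Relative viability was taken as the ratio of nuclei in treated wells to nuclei in vehicle wells. Lung cancer cell lines in 1536-well plates received compounds by pin tool one day after seeding, either one drug alone or a fixed anchor-drug dose plus five library-drug doses (not always all listed) in √10 steps. Nuclei were counted on 4× images after 5 days of treatment, and values are medians of duplicate plates.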

[2] = compound: CC1=CN2C(=O)C=C(N=C2C(=C1)C(C)NC3=CC=CC=C3)N4CCOCC4 [TGX 221] + CS(=O)(=O)N1CCN(Cc2cc3nc(-c4cccc5[nH]ncc45)nc(N4CCOCC4)c3s2)CC1 [Pictilisib] (partner 1 µM)
How it was run: as §1

[3] = compound: O=C(CCCCCCNC(=O)c1cnc(N(c2ccccc2)c2ccccc2)nc1)NO [Ricolinostat] + Nc1nc2[nH]cc(CCc3ccc(C(=O)N[C@@H](CCC(=O)O)C(=O)O)cc3)c2c(=O)[nH]1 [Pemetrexed] (partner 0.2 µM)
How it was run: as §1

[4] = compound: O=C(CCCCCCNC(=O)c1cnc(N(c2ccccc2)c2ccccc2)nc1)NO [Ricolinostat] + CC(=O)c1c(C)c2cnc(Nc3ccc(N4CCNCC4)cn3)nc2n(C2CCCC2)c1=O [Palbociclib] (partner 0.5 µM)
How it was run: as §1

| Cell Line | relative viability ([1]; first compound 0.08 µM) | relative viability ([1]; first compound 0.253 µM) | relative viability ([1]; first compound 0.8 µM) | relative viability ([1]; first compound 2.53 µM) | relative viability ([1]; first compound 8 µM) | relative viability ([2]; first compound 0.08 µM) | relative viability ([2]; first compound 0.253 µM) | relative viability ([2]; first compound 0.8 µM) | relative viability ([2]; first compound 2.53 µM) | relative viability ([2]; first compound 8 µM) | relative viability ([3]; first compound 0.253 µM) | relative viability ([3]; first compound 0.8 µM) | relative viability ([3]; first compound 2.53 µM) | relative viability ([4]; first compound 0.253 µM) | relative viability ([4]; first compound 0.8 µM) | relative viability ([4]; first compound 2.53 µM) | relative viability ([3]; first compound 0.08 µM) | relative viability ([4]; first compound 0.08 µM) |
| --- | --- | --- | --- | --- | --- | --- | --- | --- | --- | --- | --- | --- | --- | --- | --- | --- | --- | --- |
| NCI-H1395 | 1 | 0.865 | 1.04 | 0.598 | 0.665 | 0.571 | 0.531 | 0.572 | 0.676 | 0.523 | 0.801 | 0.804 | 0.746 | 0.603 | 0.662 | 0.702 | – | – |
| NCI-H1437 | 0.973 | 0.958 | 1.04 | 0.936 | 0.629 | 0.439 | 0.359 | 0.473 | 0.462 | 0.399 | 0.32 | 0.276 | 0.263 | 0.311 | 0.282 | 0.227 | 0.329 | 0.357 |
| NCI-H1651 | 0.851 | 0.67 | 0.723 | 0.726 | 0.533 | 0.501 | 0.481 | 0.584 | 0.578 | 0.465 | 0.571 | 0.55 | 0.552 | 0.512 | 0.512 | 0.542 | 0.463 | 0.499 |
| NCI-H1666 | 0.635 | 0.597 | 0.676 | 0.59 | 0.526 | 0.321 | 0.375 | 0.41 | 0.32 | 0.418 | 0.841 | 0.867 | 0.871 | 0.664 | 0.644 | 0.598 | 0.805 | 0.741 |
| NCI-H1734 | 0.801 | 0.747 | 0.802 | 0.647 | 0.616 | 0.452 | 0.41 | 0.435 | 0.377 | 0.456 | 0.414 | 0.448 | 0.473 | 0.35 | 0.4 | 0.389 | 0.446 | 0.343 |
| NCI-H1755 | 0.956 | 0.935 | 0.835 | 0.629 | 0.557 | 0.412 | 0.381 | 0.406 | 0.372 | 0.425 | 0.386 | 0.343 | 0.418 | 0.458 | 0.493 | 0.453 | 0.405 | 0.463 |
| NCI-H1793 | 0.768 | 0.616 | 0.531 | 0.467 | 0.474 | 0.274 | 0.303 | 0.317 | 0.413 | 0.291 | 0.76 | 0.815 | 0.811 | 0.31 | 0.281 | 0.329 | 0.603 | 0.306 |
| NCI-H1915 | 1.02 | 1.12 | 1.16 | 1.11 | 1.04 | 0.892 | 0.895 | 1 | 0.805 | 0.949 | 0.416 | 0.458 | 0.397 | 0.521 | 0.474 | 0.419 | 0.399 | 0.488 |
| NCI-H1944 | 1.07 | 1.03 | 1.04 | 0.921 | 0.669 | 0.335 | 0.339 | 0.361 | 0.342 | 0.335 | 0.588 | 0.565 | 0.39 | 0.307 | 0.309 | 0.297 | 0.565 | 0.332 |
